Experimental data taken from ChEMBL document CHEMBL1135658, “Structure-activity studies of the melanocortin peptides: discovery of potent and selective affinity antagonists for the hMC3 and hMC4 receptors” (J Med Chem, 2002).
Positions of bridges follow the written chain, without caps; N, C: chain ends. Non-standard residues stand in square brackets, D forms with d. Residues, ends and D or L forms follow the SMILES beside them. d2Nal = N[C@H](Cc1ccc2ccccc2c1)C(=O)O

What was measured:
[1] = molecular target: Melanocortin receptor 5 (Homo sapiens, UniProt P33032); test: Binding affinity against human Melanocortin 5 receptor
[2] = molecular target: Melanocortin receptor 3 (Homo sapiens, UniProt P41968); test: Binding affinity for human Melanocortin-3 receptor
[3] = molecular target: T1, Melanocortin receptor 4 (Homo sapiens, UniProt P32245); test: Binding affinity against human Melanocortin-4 receptor
[4] = molecular target: T1, Melanocortin receptor 4; test: Agonist activity against human Melanocortin-4 receptor; assay type: functional

T1 sequence (P32245 whole entry): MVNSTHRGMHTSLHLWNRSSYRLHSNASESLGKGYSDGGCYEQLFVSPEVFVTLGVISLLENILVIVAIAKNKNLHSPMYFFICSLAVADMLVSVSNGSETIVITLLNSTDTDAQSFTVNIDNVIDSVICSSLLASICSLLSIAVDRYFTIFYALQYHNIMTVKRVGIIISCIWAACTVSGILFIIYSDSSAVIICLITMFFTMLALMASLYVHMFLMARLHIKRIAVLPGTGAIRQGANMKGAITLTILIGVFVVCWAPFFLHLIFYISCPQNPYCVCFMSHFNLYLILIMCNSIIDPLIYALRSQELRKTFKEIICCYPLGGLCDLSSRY
Sequence of Melanocortin receptor 5 (P33032 whole entry): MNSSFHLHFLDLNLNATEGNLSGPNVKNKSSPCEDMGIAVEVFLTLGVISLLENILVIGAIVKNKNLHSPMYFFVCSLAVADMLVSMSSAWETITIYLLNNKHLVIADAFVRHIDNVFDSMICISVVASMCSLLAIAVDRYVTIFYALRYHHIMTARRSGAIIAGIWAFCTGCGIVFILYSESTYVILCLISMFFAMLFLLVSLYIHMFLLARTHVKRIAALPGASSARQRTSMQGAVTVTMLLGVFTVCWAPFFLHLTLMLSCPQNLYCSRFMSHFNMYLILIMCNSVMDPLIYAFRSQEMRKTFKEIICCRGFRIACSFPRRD
Sequence of Melanocortin receptor 3 (P41968 whole entry): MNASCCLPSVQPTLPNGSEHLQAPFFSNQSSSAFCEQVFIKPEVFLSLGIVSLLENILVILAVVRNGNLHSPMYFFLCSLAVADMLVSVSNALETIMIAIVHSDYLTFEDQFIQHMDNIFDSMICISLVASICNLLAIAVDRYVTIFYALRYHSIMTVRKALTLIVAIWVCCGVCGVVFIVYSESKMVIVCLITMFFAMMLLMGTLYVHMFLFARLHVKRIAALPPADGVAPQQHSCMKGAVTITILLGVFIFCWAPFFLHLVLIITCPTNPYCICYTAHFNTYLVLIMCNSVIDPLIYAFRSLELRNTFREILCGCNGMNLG

Compound	EC50 [1]	IC50 [1]	IC50 [2]	IC50 [3]	Activity [4]
N=C(N)NCCC[C@@H]1NC(=O)[C@@H](Cc2cccc3ccccc23)NC(=O)CCC(=O)NCCCC[C@@H](C(N)=O)NC(=O)[C@H](Cc2c[nH]c3ccccc23)NC1=O	0.53 µM	0.54 µM	0.15 µM	0.0005 µM	
CC(=O)[C@@H]1CSSC[C@@H](C(=O)N2CCC[C@H]2C(=O)CN2CCC[C@H]2C(=O)CN[C@@H](CCCCN)C(=O)CN[C@@H](CC(=O)O)C(N)=O)NC(=O)CNC(=O)[C@@H](Cc2c[nH]c3ccccc23)NC(=O)[C@H](CCCN=C(N)N)NC(=O)[C@H](Cc2ccc3ccccc3c2)NC(=O)[C@H](Cc2c[nH]cn2)NC(=O)[C@@H](CCC(=O)O)NC1=O					0%
CC(=O)N[C@H]1CSSC[C@@H](C(=O)N2CCC[C@H]2C(=O)N2CCC[C@H]2C(=O)N[C@@H](CCCCN)C(=O)N[C@@H](CC(=O)O)C(N)=O)NC(=O)CNC(=O)[C@H](Cc2c[nH]c3ccccc23)NC(=O)[C@H](CCCNC(=N)N)NC(=O)[C@@H](Cc2ccc3ccccc3c2)NC(=O)[C@H](Cc2c[nH]cn2)NC(=O)[C@H](CCC(=O)O)NC1=O (Ac-CEH[d2Nal]RWGCPPKD-NH2; disulfide 1-8)		0.016 µM	0.025 µM	0.0015 µM	
